{
  "source": "paper PMC5955586",
  "about": "“Transport of enniatin B and enniatin B1 across the blood-brain barrier and hints for neurotoxic effects in cerebral cells” (PLoS ONE, 2018)",
  "key": {"PBCEC": {"system": "PBCEC", "settings": "cited from earlier work"}, "PBCEC monolayer": {"system": "PBCEC monolayer", "assay": "Lucifer yellow permeability through PBCEC monolayer", "type": "in vitro ADME, porcine", "protocol": "Before starting each experiment, the TEER values and the electrical capacitance of all cell layers were measured via cellular impedance spectroscopy (cellZscope®, nanoAnalytics, Münster, Germany). […] TEER values relate to the constitution of the tight junctions limiting paracellular transfer of compounds. In addition to the TEER, electrical capacitances (CCl) were monitored for 48 h. Cellular phospholipid bilayers act like an electrical capacitor and also contribute to the cellular impedance. Changes of the CCl value give information about the integrity of the cell monolayer. In this experiment, a parallel set up was applied. For each treatment, one triplicate of filters was monitored via cellular impedance spectroscopy over the course of 48 h using a cellZscope® device–here, the basolateral compartment was prepared with 1650 μL serum free medium and the volume in the apical compartment was filled to 760 μL (ratio 1:2.17). Another triplicate for the same incubation conditions was kept in Transwell® filter cell culture multiple well plates (12 well format) over the course of 48 h. In the multiple well plates the ratio between the apical and the basolateral compartment was 1:3, therefore the starting volume in the apical compartment is 500 μL and 1500 μL in the basolateral compartment. Here, samples for quantitation of transfer of enniatins across the barrier were drawn after 1, 2.5, 6.5, 18, 24, 28, 42 and 48 hours in this given ratio i.e. 30 μL apical and 90 μL basolateral. After 48 h, the final TEER values of the filters from the multiple well plate were measured to ensure the stability of the cell layer throughout the experiment. To double check the integrity of the barrier, lucifer yellow (LY, 50 μM), as a paracellular transfer marker, was applied. The amount of LY found in the basolateral compartment after 1 h was measured at λex = 430 nm and λ em = 540 nm.\nAfter completion of each transport experiment, both active and passive, lucifer yellow (LY) was applied in 50 μM concentration in the apical compartments. Samples were drawn after 1 h and the amount of LY in the basolateral compartment was quantitated via external calibration. The permeability coefficients for LY through cells treated with the solvent control (ACN 0.1% and 0.02%) and through cells treated with the test compounds for the past 48 h were calculated (Table 2). The permeability coefficients range in the same order of magnitude for test substance treated cells and cells incubated with solvent, which is considerably lower than the permeability coefficients derived for ENN B and ENN B1 and indicates an intact and tight monolayer with low paracellular transfer of compounds."}},
  "data": [
    {"compound": "Cn1c(=O)c2c(ncn2C)n(C)c1=O", "note": "[caffeine]", "values": [
      {"measurement": "Papp", "setting": "PBCEC", "result": "1.55e-05", "unit": "cm/s"}
    ]},
    {"compound": "lucifer yellow [LY]", "values": [
      {"measurement": "Permeability coefficient of LY", "setting": "PBCEC monolayer; after 48 h treatment with 200 nM ENN B1 in both compartments (active)", "result": "0.9 10^−6 cm/s"},
      {"measurement": "Permeability coefficient of LY", "setting": "PBCEC monolayer; after 48 h treatment with 200 nM ENN B in both compartments (active)", "result": "0.7 10^−6 cm/s"},
      {"measurement": "Permeability coefficient of LY", "setting": "PBCEC monolayer; after 48 h treatment with 1 μM ENN B1 apically (passive)", "result": "2.2 10^−6 cm/s"},
      {"measurement": "Permeability coefficient of LY", "setting": "PBCEC monolayer; after 48 h treatment with 1 μM ENN B apically (passive)", "result": "1.9 10^−6 cm/s"},
      {"measurement": "Permeability coefficient of LY", "setting": "PBCEC monolayer; solvent control ACN 0.02%", "result": "0.2 10^−6 cm/s"},
      {"measurement": "Permeability coefficient of LY", "setting": "PBCEC monolayer; solvent control ACN 0.1%", "result": "3.2 10^−6 cm/s"}
    ]}
  ]
}
